The source of these data is patent publication EP4556005A1, “COMPOUND FOR TREATING FLAVIVIRUS INFECTIONS” (Leibniz-Institut für Virologie, priority 2023, dated 2025).

Each structure is given as a SMILES string.

The nature of data set [1]: Cytotoxicity, cell viability by Resazurin assay. The class given is cell-based. The settings on record: human, JEG-3 human placental cells; naive JEG-3 cells, 24-well plates (8×10^4 cells/well), increasing amounts of inhibitor, viability read forty-height (48) hours later; Figure 3A; read-out: 50% cytotoxicity concentration (CC50). The method, then: In a first experiment, the cytotoxicity of the UBA5 inhibitor DKM29-3 was determined. Naive JEG-3 human placental cells were seeded in 24-well plates (8×10^4 cells/well) and on the next day treated with increasing amounts of the UBA5 inhibitor DKM29-3.
A general note: The colour change of resazurin is a common sign of viable cells or microbes.

For data set [2], the system named is ZIKV (PRVABC59 strain). The experiment in a line: Zika virus replication in infected JEG-3 cells, plaque-forming unit assay (PFU) on VeroE6 cells. The class given is cell-based. The settings on record: wild-type JEG-3 cells, MOI 0.01, 16 µM or 32 µM added after virus absorption, supernatants analysed forty-height (48) hours later; n=4; Mann-Whitney test p-value < 0.05. The method, then: Then, the effect of UBA5-inhibitor DKM29-3 on Zika virus replication was studied. Wild-type JEG-3 cells were seeded as described above and infected with ZIKV (PRVABC59 strain) at an MOI (Multiplicity of Infection) of 0.01 for 1h at 37°C. After virus absorption the cells monolayers were washed with PBS (Phosphate Buffer Saline), and cell culture media containing 16 µM or 32 µM of DKM29-3 were added to the cells. Forty-height hours later virus-containing supernatants were analyzed by plaque-forming unit assay (PFU) on VeroE6 cells (n=4; Mann-Whitney test p-value < 0.05).

In the case of `COc1ccc(CNC(=O)CCl)cc1OC` [DKM29-3, 2-chloro-N-(3,4-dimethoxybenzyl)acetamide], the CC50 at 48 h in data set [1] stood at 80.2 µM. The Zika virus replication result in data set [2] was “significantly reduced”.
